Assay [1] relates to Meloidogyne incognita. Briefly: Summer field evaluation of pre-plant incorporated compounds on squash. Format: in vivo. How it is done: Test plots of 33 cm diameter holes were bored 41 cm deep into clay soil and filled with a mixture of 80% sand and 20% silt loam soil. Technical compound for each treatment was dissolved in 50 ml acetone containing 250 ul of Triton X-100 surfactant. This solution was added to 450 ml water and poured onto 95 liters of sand/soil mixture in a rotating drum mixer. While continuing to rotate the mixing drum 66 grams of chopped, galled, tomato roots was added and thoroughly distributed. The treated soil was sufficient to fill the top 15 cm of each of the 6 replicate plots, thus simulating a PPI treatment. The plots were then watered lightly and a mixture of M. incognita eggs and larvae were injected 5 cm deep at 5 points within the plot (100 k eggs/larvae in 10 ml per plot). Three-week old squash (cv. Liberator III) with 1 fully expanded true leaf was planted 4 days after soil treatment, one per plot.

The subject of another assay is root knot nematode (RKN). Briefly: RKN greenhouse soil assay on cucumber plants. In kind it is in vivo, Meloidogyne incognita. The source says: Cucumber seeds are planted in a sandy soil mixture in two inch square plastic pots. When the cotyledons are fully opened and just as the first leaf begins to emerge, usually 7 days after planting, chemistry for the 7 day treatment is applied. One week later the chemistry for the 0 day treatment is applied. Separate plants are used for each application. The plants are generally in the 1-2 leaf stage now. At least four hours after the chemistry application the pots are inoculated with root knot nematode (RKN) eggs. Plants are rated for galling 14 days after the egg inoculation.
One milligram of chemistry per four pots is equal to one kilogram per hectare of chemical. A standard test uses four replications. For rates above 2 kg/ha, the desired amount of chemical is weighed into a 30 ml vial (example: 8 kg/ha rate=8 mg chemical in 30 ml vial). The chemical is dissolved in 2 ml of appropriate solvent, generally acetone. For rates below 2 kg/ha, 2 milligrams of chemistry is weighed into the vial and dissolved in 2 ml of the solvent. The appropriate amount of chemical concentrate is then pipetted into a separate 30 ml vial and solvent is added to bring the volume to 2 ml (example 0.5 kg/ha=0.5 ml of concentrate+1.5 ml solvent). Each dissolved concentrate is then brought to a total of 20 milliliters using 0.05% Triton X 100 surfactant solution.
Pots to be treated are moist but not saturated. To each of four pots, five milliliters of the appropriate chemical solution is pipetted to the media surface making sure to avoid contact with the base of the plant. Immediately following chemical application, using a mist nozzle, the pot surface is wetted sufficiently to saturate the pot watering in the chemistry. The chemical application is done in the morning.
Nematode eggs, either SCN or RKN, are added to distilled water to create a concentration of 1000 vermiform eggs […]. At least four hours after chemical treatment the eggs are applied to the treated pots plus non-treated check plants. A small hole about 1 cm deep is punched into the pot surface. One milliliter of the nematode egg slurry is pipetted into the hole. Immediately afterwards the hole is gently covered. Watering of the test plants is then restricted to only water as needed to prevent wilt for a period of 24 hours. After the 24 hour restricted watering, normal sub-irrigation watering is done for the duration of the test.

Assay [2] concerns Meloidogyne incognita. The assay can be described thus: M. incognita miniaturized greenhouse assay on cucumber seedlings (root galling). In kind it is in vivo. Also on record: key to 1 ppm gall ratings / 1 ppm gall rating: mean of 3 gall ratings: 0=0-5%, 1=6-20%, 2=21-50%, 3=51-100% root galled. How it is done: The test compound is dissolved in an acetone solution and added to water. A sprouted cucumber seedling is placed into a vial with dry sand and the water-chemical solution is added immediately. Twenty four hours later Meloidogyne incognita eggs are added to the vials and 10 to 12 days later the roots are evaluated for nematode galling.
Cucumber seeds are sprouted for 3 days in moist paper towels. Acceptable sprouts should be 3 to 4 cm long with several lateral roots just emerging. Stock solutions of chemistry are prepared in a mixture of acetone and Triton X100 (412 mg in 500 mL) to a final concentration of 5 mg/mL. The chemical stock solution is then added to 10 mL deionized water plus 0.015% Triton X100 and mixed thoroughly. This is enough to test each condition in triplicate. Ten mL dry sand is added to each vial. At this time the solubility of the chemistry is visually determined and recorded as either ppt (large precipitates) or cloudy (fine precipitates). Seedlings are planted by tilting the vial and laying the seedling in the correct orientation so that the cotyledons are just above the sand and then tilting back to cover the radicles with sand. 3.3 ml water/chemical mix is added to each vial and the vials placed in racks under fluorescent light banks. The vials are inoculated two days after planting by adding 500 vermiform M. incognita eggs to each vial in 50 uL of deionized or spring water. The vials are then kept under the fluorescent lamps at ambient room temperature and watered as needed with 1 mL deionized water, usually twice during duration of test. Harvest of the cucumber plants is done 10 to 12 days after inoculation by washing sand off the roots. A root gall rating and visual phytotoxicity rating is assigned using the following scales: Gall rating scale (Gall: % root mass galled): 0=0-5%; 1=6-20%; 2=21-50%; and 3=51-100%. The average of the triplicate gall rating is then calculated: green=0.00-0.33 (no galls); yellow=0.67-1.33 (mild galling); orange=1.67-2.33 (moderate galling); red=2.67-3.00 (severe galling). Visual phytotoxicity scale is also assigned (Vis. tox; visual reduction in root mass compared to the control): rs1=mild stunting; rs2=moderate stunting; rs3=severe stunting.

The test system of another assay is root knot nematode. The assay can be described thus: Pre-plant incorporated (PPI) greenhouse test of root knot nematode on cucumber plants. The conditions noted are these: Meloidogyne incognita, fourteen day pre-plant incorporated, test a, read-out: percent control (galling reduction) relative to the control blank treatment. Format: in vivo, Meloidogyne incognita. The source says:
The PPI test examines the effect of pre-incorporation of compounds in soil and longer aging to simulate in furrow methods of nematicide application in the field. The PPI test exposes compounds to a higher volume of soil and drying which can result in more severe soil binding. Compounds are also aged for longer periods which can lead to more extensive biotic and abiotic degradation further limiting activity.
The chemically treated soil (sandy soil mix) for all treatment days (e.g., 7 days, 14 days, 21 days) treatments is potted into their appropriate pots. On the same day the 7 day treatment pots are seeded. One week later eggs are applied and 14 days after egg application the test is harvested. The 14 day treatments are planted 7 days after the first planting. The 14 day planting and 7 day inoculation happen on the same day. One week later the 14 day treatments are inoculated with eggs. These are harvested 14 days after the inoculation. The 21 day treatments are planted 14 days after the first planting. The 14 day inoculation and 21 day planting are done on the same day. One week later the 21 day plants are inoculated with eggs. The 7 day treatment is harvested the same day as the 21 day inoculation. Fourteen days after inoculation the 21 day plants are harvested.
For each compound a stock is prepared using 4 mg material in 4 ml of acetone. The soil is mixed by placing 80 ml of field soil and 320 ml of sand in a plastic bag and mixing well. The formulation for treatment is done by adding 2.13 ml (8 kg/ha rate), 1.06 ml (4 kg/ha rate) or 0.53 ml (2 kg/ha rate) to a vial and raising it with 10 ml in 0.05%×100. Soil is then treated by adding the entire 10 ml to the 400 ml of mix in the bag. The treated soil is immediately mixed well in the sealed bag to distribute the compound evenly. Approximately 95 ml is used to fill each 2-inch square pot up to the top with some soil compression and flattening. For each compound and for the control treatments 4 pots are filled. All pots are watered until moist but with no run-out through the bottom.
The PPI test simulates 8, 4 and 2 kg/ha rates incorporated 15 cm deep in the field and is equivalent to the 2, 1 and 0.5 kg/ha drench application rates in the standard 2-inch pot cucumber greenhouse assay.

The next assay concerns C. elegans. The assay can be described thus: Three day C. elegans well assay. Conditions: for EC50 L4 1D / EC50 L1 1D: one day of exposure; for EC50 L4 2D (F1) / EC50 L4 2D: two days of exposure; for EC50 L4 2D (F1): effects on the second generation larvae (F1); for EC50 L1 1D: L1 larvae. In kind it is in vivo. How it is done: Various compounds were tested for nematicidal activity against C. elegans using contact assays in wells. The assays were performed as described below. The test compounds were solubilized in DMSO at 10 mg/ml to create 100× stock solutions. A dilution series was created by diluting the stock solution with DMSO. For each well assay 4 ul of the appropriate dilution is added to a well of a test plate. A 400 ul aliquot of bacterial stock (in M9 buffer with ampicillin and nystatin) are added to each well of the test plate. Worms are added and the test plate placed on a rotary shaker and held at 20° C. Worms are examined and scored at 4 hrs, 24 hrs, 48 hrs and 72 hours. L1 worms and L4 worms were used in the assay. L1 worms are prepared by plating eggs on a plate without a bacterial feeding layer. The eggs hatch and arrest at the L1 stage. This L1 stage population is then used to create a stock for the experiments. To create an L4 stage stock a small number of worms are taken from an overgrown and starved plate of worms and seeded on a plate with a bacterial feeder layer. A 25 ul aliquot of worms is added to each well in the assay.

9 compounds from patent publication US10827753B2, “Compositions and methods for controlling nematodes” (Monsanto Technology LLC, priority 2007, dated 2020) can be followed below.

In the case of `Clc1ccc(-c2noc(-c3ccco3)n2)cc1` [compound 5523], in the assay on Meloidogyne incognita [1] (4 kg (kg/ha) PPI, squash), the “0-3 vigor 16 DAP” value is recorded as 3.0, the “0-3 vigor 21 DAP” value is 3.0, the “feeder root (3 = ave) 31 DAP” value was 3.0 and the “gall % 31 DAP” value is 26%. In the assay with Meloidogyne incognita [1] (4 kg (kg/ha) PPI, squash), the “root wgt (g) 31 DAP” value was determined as 26.3 g, the “top wgt (lbs) 31 DAP” value is recorded as 1.31 lbs and the “total fruit (lbs)” value is listed as 1.24 lbs. In the assay on Meloidogyne incognita [1] (PPI application at 4 kg/ha), the “control of M. incognita (in words)” value is listed as “significant control”. The “percent control (galling reduction) relative to the appropriate control blank treatment” value in the assay on root knot nematode (RKN) (Acetone 1 mg/kg, standard 10% acetone in 0.05% Triton X 100 formulation) turned out to be 86%. Further, the “percent control (galling reduction) relative to the appropriate control blank treatment” value in the assay with root knot nematode (RKN) (Radex 1 mg/kg, emulsifiable concentrate, 6.25% active ingredient by weight) was determined as 86%. Besides, in the assay with Meloidogyne incognita [2] (Table 1B test a), the “1 ppm gall ratings” value is recorded as 1 (1=6-20%). Besides, the “1 ppm gall ratings” value in the assay on Meloidogyne incognita [2] (Table 1B test b) is 1.33. Moreover, the “8 ppm gall ratings” value in the assay with Meloidogyne incognita [2] (8 ppm, average of triplicate gall rating, scale 0-3 (% root mass galled)) was 0 (0=0-5%). The pest or weed control at 2000 g/ha in the assay on root knot nematode (2 kg/ha rate) stood at 59%. For the same compound, in the assay on root knot nematode (4 kg/ha rate), the pest or weed control at 4000 g/ha was determined as 87%. Moreover, in the assay with root knot nematode (8 ka/ha rate), the pest or weed control at 8000 g/ha was determined as 99%.

For `Clc1cc(-c2noc(-c3cccs3)n2)ccc1Br` [compound 5820], in the assay on C. elegans (L4 larvae), the “EC50 L4 1D” value was “no” and the “EC50 L4 2D (F1)” value is reported as “(25 F1) parts per million”.

For `Clc1cc(-c2noc(-c3ccco3)n2)ccc1Br` [compound 5821], in the assay on C. elegans (L4 larvae), the “EC50 L4 1D” value was “no” and the “EC50 L4 2D (F1)” value is reported as “(0.4 F1) parts per million”.

With `Cc1cc(Cl)ccc1-c1noc(-c2cccs2)n1` [compound 5822], the “EC50 L4 1D” value in the assay on C. elegans (L4 larvae) is recorded as “no”.

As to `Cc1cc(Br)ccc1-c1noc(-c2cccs2)n1` [compound 5824], in the assay with C. elegans (L4 larvae), the “EC50 L4 1D” value was “no” and the “EC50 L4 2D” value is listed as “no”.

With `Clc1ccccc1-c1cnc(-c2ccco2)o1` [compound 5828], in the assay on C. elegans (L4 larvae), the “EC50 L4 1D” value is “no” and the “EC50 L4 2D” value is “no”. Besides, in the assay on C. elegans (L4 larvae, three days of exposure), the “EC50 L4 3D” value was “no”.

For `Cc1cc(F)ccc1-c1noc(-c2cccs2)n1` [compound 5845], the “EC50 L1 1D” value with C. elegans is on record as “no”. In the assay on C. elegans (L4 larvae), the “EC50 L4 1D” value is reported as “no”.

On to `Fc1ccc(-c2noc(-c3cccs3)n2)c(F)c1` [compound 5847], for which the “EC50 L1 1D” value in the assay on C. elegans is “no”. For the same compound, the “EC50 L4 1D” value in the assay with C. elegans (L4 larvae) is on record as “no”.

`Fc1ccc(-c2noc(-c3ccco3)n2)c(F)c1` [compound 5849]: in the assay with C. elegans (L4 larvae), the “EC50 L4 1D” value was “no” and the “EC50 L4 2D (F1)” value is listed as “(6.3 F1) parts per million”.
